Laboratory results as given in patent US20250114390A1, “MULTI-ACTIVE TABLET IN THE TREATMENT AND CONTROL OF SEVERE CHRONIC PAIN AND METHOD OF PREPARATION” (LABORATORIOS SILANES S.A. DE C.V., priority 2023, published 2025).
≈ marks a conversion by molar mass, not a printed value. Like-named read-outs stand apart in the source and are kept apart here.

Columns and labels:
[1] = cited from earlier work
[2] = test system: healthy subjects; assay: Adverse events in the comparative bioavailability clinical trial; details: single dose
From the text: The study was open, longitudinal, prospective, with a 3×6×3 design, with random assignment, single dose, three treatments, three periods and six sequences under fasting conditions, in a healthy Mexican female and male population with a washout time for drug elimination of one week (07 days) between each period.
Due to the COVID-19 health emergency, the 42 research subjects were divided into two hospitalization groups: Group 1 with 22 research subjects and Group 2 with 20 research subjects. After fasting for at least 10 hours, a blood sample was taken at time 0.00 hours, and a dose of celecoxib/pregabalin/vitamin B, 200 mg/150 mg tablets/vitamin B12 500 μg/vitamin B1 100 mg/vitamin B6 50 mg was administered, in a single dose of the test medicament or the reference medicament as monotherapy (celecoxib 200 mg capsule or pregabalin 150 mg capsule) according to prior randomization, orally with 250 ml of water at room temperature. After administration of the corresponding medicament, another 17 samples were taken at the following times: 0.50, 0.75, 1.00, 1.33, 1.66, 2.00, 2.50, 3.00, 3.50, 4.00, 6.00, 8.00, 10.00, 14.00, 24.00, 36.00- and 48.00-hours post-dose.

[3] = cited from earlier work; remark: listed apart in the source

**Q.** What does the source list for `Cc1ncc(C[n+]2csc(CCO)c2C)c(N)n1` [Thiamine]?
**A.** pKa [1]: 15.5; Solubility in chloroform ([1]; in words): very slightly soluble; Solubility in diethyl ether ([1]; in words): almost insoluble; Solubility in ethanol ([1]; in words): slightly soluble; Solubility in hot water ([1]; in words): Freely soluble; Solubility in methanol ([1]; in words): slightly soluble; Solubility in water ([1]; in words): slightly soluble

**Q.** For `CC(C)C[C@H](CN)CC(=O)O` [Pregabalin], which “Adverse events probably related to dosing, total” value [2] is on record?
**A.** The value was 16 events.

**Q.** And the Events of dizziness [2]?
**A.** Its Events of dizziness is 13 events.

**Q.** And the Events of headache [2]?
**A.** The Events of headache was 1 events.

**Q.** What about the Events of paresthesia [2] of the same compound?
**A.** Its Events of paresthesia is 1 events.

**Q.** What about the “Events of visual disturbances” value [2] of the same compound?
**A.** Its value is 1 events.

**Q.** What about the “Permeability (biopharmaceutical classification)” value ([1]; not told) of the same compound?
**A.** The value was “high permeability”.

**Q.** What does the source list for `Cc1ccc(-c2cc(C(F)(F)F)nn2-c2ccc(S(N)(=O)=O)cc2)cc1` [Celecoxib]?
**A.** Solubility [1]: 3300 µg/mL (≈ 8.65 mM); Solubility (biopharmaceutical classification) [1]: low solubility; Cmax of celecoxib ([3]; Author: Center for Drug Evaluation, 1999): 600.0 ± 900.00 ng/mL; ABC0-t of celecoxib ([3]; Author: Laboratorios Silanes): 5593.760 ± 2158.606 ng/mL*h; Cmax of celecoxib ([3]; Author: Laboratorios Silanes): 602.685 ± 301.48 ng/mL; ABC0-t of celecoxib ([3]; Author: Lilitkarntrakul, P): 5157.12 ± 1499.46 ng/mL*h; Cmax of celecoxib ([3]; Author: Lilitkarntrakul, P): 686.83 ± 211.35 ng/mL; ABC0-t of celecoxib ([3]; Author: Paulson, S): 5994.0 ± 2393.0 ng/mL*h; Cmax of celecoxib ([3]; Author: Paulson, S): 806.0 ± 411.0 ng/mL; ABC0-t of celecoxib ([3]; Author: Sy-Yeuan J): 7267.48 ± 2077.68 ng/mL*h; Cmax of celecoxib ([3]; Author: Sy-Yeuan J): 703.86 ± 329.91 ng/mL

**Q.** For Cyanocobalamin, which pH ([1]; 1 g/L at 20° C.) is on record?
**A.** Its pH is 6.0.

**Q.** What about the Solubility [1] of the same compound?
**A.** The Solubility was 12000 µg/mL.

**Q.** What about the pKa [1] of the same compound?
**A.** The pKa was 1.82.

**Q.** And the Solubility in acetone ([1]; in words)?
**A.** Its Solubility in acetone is “almost insoluble”.

**Q.** And the Solubility in alcohol ([1]; in words)?
**A.** The Solubility in alcohol was “Soluble”.

**Q.** What about the Solubility in chloroform ([1]; in words) of the same compound?
**A.** The Solubility in chloroform was “almost insoluble”.

**Q.** What about the “Solubility in diethyl ether” value ([1]; in words) of the same compound?
**A.** Its value is “almost insoluble”.

**Q.** And the Solubility in water ([1]; in words)?
**A.** The Solubility in water was “slightly soluble”.

**Q.** Which results are given for `Cc1ncc(CO)c(CO)c1O` [Pyridoxine]?
**A.** Stability (description) ([1]; air, light): stable in air and slowly decomposes with light; pKa [1]: 9.4; Solubility in alcohol ([1]; in words): slightly soluble; Solubility in diethyl ether ([1]; in words): almost insoluble; Solubility in water ([1]; in words): Easily soluble
